This is an account of results in patent US12540115B2, “Inhibitors of phospholipid synthesis and methods of use” (priority 2019, dated 2026).

Assay [1] relates to mouse hepatocellular carcinoma lines. Kind of assay: Cancer cell proliferation, MTT assay on mouse hepatocellular carcinoma lines. It counts as cell-based. To be noted: treated 1-3 days, dosage range 1 mM to 0.1 nM; vs untreated (DMSO). The method, then:
(§1) FIG. 1-26 illustrate various exemplary GPAT inhibitors that suppress cancer cell proliferation. With reference to FIG. 1-26: BCL stands for Burkitt lymphoma line, all experiments on BCL were done using trypan blue and cell counts. Cells are treated 1-3 days with dosage range 1 mM to 0.1 nM. RCC stands for renal cell carcinoma, all experiments on RCC were in vivo experiments. Tumors are treated with dosage range 0.1 mg/kg to 100 mg/kg for X days, wherein X ranges from 7 to 30 days. All experiments are done in MTT assay on mouse hepatocellular carcinoma lines that are treated 1-3 days with the dosage range from 1 mM to 0.1 nM. The bar in each of FIGS. 1-26 entitled “Untreated” refers to a sample without an exemplary GPAT inhibitor compound, diluted in DMSO solvent.

The next assay deals with Burkitt lymphoma line. Kind of assay: Burkitt lymphoma line proliferation, trypan blue and cell counts. To be noted: treated 1-3 days, dosage range 1 mM to 0.1 nM. The class given is cell-based. As for the experimental part:
as §1

The test system of a further assay is renal cell carcinoma. The experiment in a line: Renal cell carcinoma (RCC) in vivo tumor experiments. The arrangement: species or system mice. To be noted: dosage range 0.1 mg/kg to 100 mg/kg for 7 to 30 days. The method, then: as §1
MYC RCC mice were generated by crossing FVB/N-Tg(tetO-MYC)28aBop/J mice for MYC with Tg(Ggt1-tTA) #Agoc or (GGT-tTA) for kidney specificity. MYC HCC mice were generated by crossing FVB/N-Tg(tetO-MYC)28aBop/J mice for MYC with Tg(Cebpb-tTA)5Bjd or (LAP-tTA) for liver specificity. All parental lines had undergone at least 10 generations of backcrossing. MYC RCC and MYC HCC mice were bred on doxycycline until 4 weeks of age, when doxycycline was replaced with water for at least 2 weeks for tumorigenesis depending on the experiment described in the patent. […]

The target of assay [2] is glycerol 3-phosphate acyltransferase (GPAT). To be noted: read-out: IC50, inhibitor of glycerol 3-phosphate acyltransferase (GPAT); cited from earlier work.
For a further assay, the system named is diet-induced obese mice. To be noted: cited from earlier work.
The test system of a further assay is MYC-induced tumors. The experiment in a line: FSG67 in MYC-induced tumors, xenograft and primary mouse models. It counts as in vivo. From the text:
We present a comprehensive overview of how the MYC oncogene controls lipogenesis to promote tumorigenesis. We find that MYC globally regulates the expression of key genes and their resulting proteins and metabolites in lipogenesis for human and murine cell lines as well as for transgenic mouse models. […] Desorption electrospray ionization mass spectrometric imaging (DESI-MSI) from tissue samples of several conditional transgenic mouse models identified in vivo metabolic changes in simple fatty acids and in complex phospholipids induced by MYC. […] Strong correlation between these in situ changes and elevation of gene expressions of cytidinediphosphate diacylglycerol pathway genes as well as fatty acid elongase genes were found. By administering FSG67, which inhibits GPAT, MYC-induced tumorigenesis was blocked, metabolic changes were suppressed, and tumors regressed in xenograft and primary mouse models.

For `CCCCCCCCCS(=O)(=O)Nc1ccccc1C(=O)O` [BTX 100], the cancer cell proliferation result in assay [1] is listed as “suppresses cancer cell proliferation”.
For the compound `CC(C)CS(=O)(=O)Nc1ccccc1C(=O)O` [BTX 106], the “Burkitt lymphoma cell proliferation” value in the assay with Burkitt lymphoma line is listed as “suppresses Burkitt lymphoma cell proliferation”.
For `CCOCCS(=O)(=O)Nc1ccccc1C(=O)O` [BTX 108], in assay [1], the cancer cell proliferation result is listed as “suppresses cancer cell proliferation”.
As for `CC(C)S(=O)(=O)Nc1ccccc1C(=O)O` [BTX 205], the “renal cell carcinoma cell proliferation” value in the assay on renal cell carcinoma is reported as “suppresses renal cell carcinoma cell proliferation”.
Turning to `CS(=O)(=O)Nc1ccccc1-c1nnn[nH]1` [BTX 281], in assay [1], the cancer cell proliferation entry is “suppresses cancer cell proliferation”.
For the compound `CS(=O)(=O)Nc1ccccc1C(=O)O` [BTX 601], the cancer cell proliferation result in assay [1] was “suppresses cancer cell proliferation”.
Same read-out and setting: as for `CS(=O)(=O)Nc1ccccc1C#N` [BTX 671], the entry is “suppresses cancer cell proliferation”.
As for `CS(=O)(=O)Nc1ccccc1CO` [BTX 931], the “Burkitt lymphoma cell proliferation” value with Burkitt lymphoma line was “suppresses Burkitt lymphoma cell proliferation”.
On to `CCCCS(=O)(=O)Nc1ccccc1-c1nnn[nH]1` [BTX 982], for which, in the assay on Burkitt lymphoma line, the “Burkitt lymphoma cell proliferation” value is reported as “suppresses Burkitt lymphoma cell proliferation”.
On to `O=C(O)c1ccccc1NS(=O)(=O)Cc1ccccc1` [BTX 1010], for which, in assay [1], the cancer cell proliferation result is “suppresses cancer cell proliferation”.
On the same count and under the same terms, the same measure for `CCCCCCCCCS(=O)(=O)Nc1ccccc1F` [BTX 1101]: “suppresses cancer cell proliferation”.
The same measure, in the same setting: the same measure for `CCCCCCCCCS(=O)(=O)Nc1ccccc1Cl` [BTX 2111]: “suppresses cancer cell proliferation”; for `CCCCCCCCCS(=O)(=O)Nc1ccccc1Br` [BTX 2121]: “suppresses cancer cell proliferation”.
The same measure, in the same setting: the same measure for `CCCCCCCCCS(=O)(=O)N1C(=O)OCc2ccccc21` [BTX 2191]: “suppresses cancer cell proliferation”.
Regarding `CCCCCCCCCS(=O)(=O)Nc1ccccc1S(C)(=O)=O` [BTX 4171], the cancer cell proliferation entry in assay [1] was “suppresses cancer cell proliferation”.
`CCCCCCCCCS(=O)(=O)Nc1ccccc1S(N)(=O)=O` [BTX 8151]: in the assay on Burkitt lymphoma line, the “Burkitt lymphoma cell proliferation” value is “suppresses Burkitt lymphoma cell proliferation”.
On the same count and under the same terms, as for `CCCCCCCCCS(=O)(=O)Nc1ccccc1C(=O)NS(=O)(=O)C(F)(F)F` [BTX 9141], the entry is “suppresses Burkitt lymphoma cell proliferation”.
As for `CCCCCCCCCNS(=O)(=O)c1ccccc1C(=O)O` [BTX 9161], the cancer cell proliferation result in assay [1] is listed as “suppresses cancer cell proliferation”.
For the compound `CCCCCCCCCN1C(=N)c2ccccc2S1(=O)=O` [BTX 19102], the cancer cell proliferation entry in assay [1] is on record as “suppresses cancer cell proliferation”.
Same read-out and setting: the same measure for `CCCCCCCCCS(=O)(=O)Nc1ccccc1CO` [BTX 83009]: “suppresses cancer cell proliferation”; for `NC1=NS(=O)(=O)c2ccccc21` [BTX 291002]: “suppresses cancer cell proliferation”.
Still for that read-out and setting: as for `N#Cc1ccccc1S(N)(=O)=O` [BTX 491001], the entry is “suppresses cancer cell proliferation”.
Consider `CCCCCCCCCS(=O)(=O)Nc1ccccc1C(=O)O` [FSG67, 2-(Nonylsulfonamido)benzoic acid], for which, in assay [2], the IC50 is 24 µM. For the same compound, in the assay with diet-induced obese mice, the “body weight and adiposity” value is “decrease body weight and adiposity”; the “energy utilization as fatty acid oxidation” value was “enhance energy utilization as fatty acid oxidation”; the food intake entry is on record as “reduce food intake”; the hepatic steatosis result is on record as “reverse hepatic steatosis”. Besides, in the assay on diet-induced obese mice, the insulin sensitivity entry was “enhance insulin sensitivity”. Also, in the assay on MYC-induced tumors, the MYC-induced tumorigenesis entry is recorded as “blocked”, the metabolic changes result was “suppressed” and the “tumors (regression)” value is “regressed”.

What is called IC50 is the concentration that inhibits the measured activity by half.
